From patent publication US20230365624A1, “NOVEL ANGIOTENSIN I-CONVERTING ENZYME (ACE) INHIBITORY PEPTIDES” (Thai Union Group Public Company Limited, priority 2020, published 2023)
No end group written: not given here.

Tested on: GI enzymes (pepsin and pancreatin)
Experiment: In vitro gastrointestinal (GI) digestion of synthetic peptides, with ACE inhibitory activity and α-amino group content before and after
Format: in vitro ADME
Conditions: pepsin pH 2.0, 37° C., 1 h, then pancreatin pH 7.5, 37° C., 2 h (FIG. 6)
Method: It is necessary for ACE inhibitory peptides to retain its activity in GI tract so that it can be absorbed into the bloodstream, where the peptide inhibitors can show their hypotensive effect. In vitro gastrointestinal digestion provides an easy process to imitate antihypertensive activity of peptides under oral administration. […] In vitro GI digestion was simulated according to the method of Zhu et al. (2008) with some modifications. One milligram of each sample was dissolved in 0.5 ml of 0.1 M KCl-HCl, and the pH was adjusted to 2.0 with 6 M HCl. Pepsin (1% enzyme/substrate, w/w) was added, and the mixture was incubated in a shaking water bath at 37° C. for 1 h, and the pH was then adjusted to pH 7.5. […] ACE inhibitory activity and α-amino groups content of the peptides before and after in vitro GI digestion were measured. […]
ACE inhibitory activity assay was carried out according to the methods of Cushman and Cheung (1971) and Wu et al. (2002) with some modifications. […] Absorbance was measured at 228 nm. The percentage of ACE inhibition was calculated as follows: […]
Content of α-amino groups was performed according to Adler-Nissen (1979). […] The mixture was left at room temperature for 30 min before an absorbance at 420 nm was monitored. […] The content of α-amino groups was expressed as leucine equivalents.

VSVVQYSR [VSVVQYSR] was tested, and the “Decrease of ACE inhibitory activity after GI digestion” value was roughly 19%.
